# Measurements from patent US10118902B2 (Sanford Burnham Prebys Medical Discovery Institute, priority 2014, dated 2018).
# Target: neurotensin receptor 1 (NTR1) (Homo sapiens (Human), UniProt P30989)
# Assay: NTR1 dose response, high-content imaging beta-arrestin-GFP assay in NTR1-U2OS cells
# Format: cell-based
# Details: read-out: EC50
# neurotensin receptor 1 (NTR1), sequence (P30989 whole entry, species assumed): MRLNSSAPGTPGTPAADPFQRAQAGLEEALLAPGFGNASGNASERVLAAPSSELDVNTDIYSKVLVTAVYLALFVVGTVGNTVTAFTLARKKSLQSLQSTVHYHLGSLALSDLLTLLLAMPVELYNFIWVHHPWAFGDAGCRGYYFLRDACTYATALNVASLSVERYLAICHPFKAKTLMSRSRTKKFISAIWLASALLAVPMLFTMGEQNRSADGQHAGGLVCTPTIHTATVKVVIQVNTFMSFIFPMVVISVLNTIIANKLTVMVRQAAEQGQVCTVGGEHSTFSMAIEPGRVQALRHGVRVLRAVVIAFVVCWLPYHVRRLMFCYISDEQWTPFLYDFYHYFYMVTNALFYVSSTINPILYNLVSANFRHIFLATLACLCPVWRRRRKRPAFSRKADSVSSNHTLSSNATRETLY
row,EC50 [µM],SMILES
1,> 10,"CN(CCO)c1ccc2nc(C3(F)CC3)nc(N3CCC(C4CCCCC4)CC3)c2c1 [Example 139, 2-((4-(4-cyclohexylpiperidin-1-yl)-2-(1-fluorocyclopropyl)quinazolin-6-yl)(methyl)amino)ethanol]"
2,> 10,"CN(CCO)c1ccc2nc(C3CC3)nc(N3CCN(C4CCCC4O)CC3)c2c1 (stereo not drawn) [Example 140, 2-(4-{2-cyclopropyl-6-[(2-hydroxy-ethyl)-methyl-amino]-quinazolin-4-yl}-piperazin-1-yl)-cyclopentanol]"
3,> 10,"CCCN(C)c1ccc2nc(C3CC3)nc(N3CCN(C4CCCC4O)CC3)c2c1 (stereo not drawn) [Example 141, 2-{4-[2-cyclopropyl-6-(methyl-propyl-amino)-quinazolin-4-yl]-piperazin-1-yl}-cyclopentanol]"
4,> 10,"CN(CCN1CCOCC1)c1ccc2nc(C3CC3)nc(N3CCN(C4CCCC4O)CC3)c2c1 (stereo not drawn) [Example 142, 2-(4-{2-cyclopropyl-6-[methyl-(2-morpholin-4-yl-ethyl)-amino]-quinazolin-4-yl}-piperazin-1-yl)-cyclopentanol]"
5,2 to 10,"COc1ccccc1C1CCN(c2nc(-c3ccccc3)nc3ccc(N(C)CCO)cc23)CC1 [Example 144, 2-({4-[4-(2-methoxy-phenyl)-piperidin-1-yl]-2-phenyl-quinazolin-6-yl}-methyl-amino)-ethanol]"
6,> 10,"COCCN(C)c1ccc2nc(-c3ccccc3)nc(N3CCC(c4ccccc4OC)CC3)c2c1 [Example 145, (2-methoxy-ethyl)-{4-[4-(2-methoxy-phenyl)-piperidin-1-yl]-2-phenyl-quinazolin-6-yl}-methyl-amine]"
7,> 10,"CCCN(C)c1ccc2nc(-c3ccccc3)nc(N3CCC(c4ccccc4OC)CC3)c2c1 [Example 146, {4-[4-(2-methoxy-phenyl)-piperidin-1-yl]-2-phenyl-quinazolin-6-yl}-methyl-propyl-amine]"
8,> 10,"COc1ccccc1C1CCN(c2nc(-c3ccccc3)nc3ccc(N(C)CCN4CCOCC4)cc23)CC1 [Example 147, {4-[4-(2-methoxy-phenyl)-piperidin-1-yl]-2-phenyl-quinazolin-6-yl}-methyl-(2-morpholin-4-yl-ethyl)-amine]"
9,> 10,"COc1cccc2c1CN(c1nc(C3CC3)nc3ccc(N(C)CCO)cc13)C2 [Example 149, 2-{[2-cyclopropyl-4-(4-methoxy-1,3-dihydro-isoindol-2-yl)-quinazolin-6-yl]-methyl-amino}-ethanol]"
10,> 10,"COc1cccc2c1CCN(c1nc(C3CC3)nc3ccc(N(C)CCO)cc13)CC2 [Example 150, 2-{[2-cyclopropyl-4-(6-methoxy-1,2,4,5-tetrahydro-benzo[d]azepin-3-yl)-quinazolin-6-yl]-methyl-amino}-ethanol]"
11,> 10,"COc1ccccc1N(C)C1CCCC1Nc1nc(C2CC2)nc2ccc(N(C)CCO)cc12 (stereo not drawn) [Example 151, 2-[(2-cyclopropyl-4-{2-[(2-methoxy-phenyl)-methyl-amino]-cyclopentylamino}-quinazolin-6-yl)-methyl-amino]-ethanol]"
12,> 10,"CCCN(C)c1ccc2nc(C3CC3)nc(NC3CCCC3N(C)c3ccccc3OC)c2c1 (stereo not drawn) [Example 152, 2-cyclopropyl-N4-{2-[(2-methoxy-phenyl)-methyl-amino]-cyclopentyl}-N6-methyl-N6-propyl-quinazoline-4,6-diamine]"
13,> 10,"COc1ccccc1N1CCC(Nc2nc(C3CC3)nc3ccc(N(C)CCO)cc23)C1 (stereo not drawn) [Example 154, 2-((2-cyclopropyl-4-((1-(2-methoxyphenyl)pyrrolidin-3-yl)amino)quinazolin-6-yl)(methyl)amino)ethanol]"
14,> 10,"CCCN(C)c1ccc2nc(C3CC3)nc(NC3CCN(c4ccccc4OC)C3)c2c1 (stereo not drawn) [Example 155, 2-cyclopropyl-N4-(1-(2-methoxyphenyl)pyrrolidin-3-yl)-N6-methyl-N6-propylquinazoline-4,6-diamine]"
15,> 10,"COC(=O)Cc1c(C)nc(C2CC2)nc1N1CCC(c2ccccc2OC)CC1 [Example 156, Methyl 2-(2-cyclopropyl-4-(4-(2-methoxyphenyl)piperidin-1-yl)-6-methylpyrimidin-5-yl)acetate]"
16,> 10,"COc1ccccc1C1CCN(c2nc(C3CC3)nc(C)c2CC(=O)N(C)C)CC1 [Example 157, 2-{2-cyclopropyl-4-[4-(2-methoxy-phenyl)-piperidin-1-yl]-6-methyl-pyrimidin-5-yl}-N,N-dimethyl-acetamide]"
17,> 10,"CCCN(C)C(=O)Cc1c(C)nc(C2CC2)nc1N1CCC(c2ccccc2OC)CC1 [Example 158, 2-{2-cyclopropyl-4-[4-(2-methoxy-phenyl)-piperidin-1-yl]-6-methyl-pyrimidin-5-yl}-N-methyl-N-propyl-acetamide]"
18,> 10,COc1ccccc1C1CCN(c2nc(C3CC3)nc(C)c2CC(=O)Nc2ccccc2)CC1 [Example 160]
19,> 10,"COC(=O)Cc1c(C)nc(N2CCC(c3ccccc3OC)CC2)nc1C1CC1 [Example 161, {4-cyclopropyl-2-[4-(2-methoxy-phenyl)-piperidin-1-yl]-6-methyl-pyrimidin-5-yl}-acetic acid methyl ester]"

row,EC50 [µM],SMILES
1,> 10,"CCCN(C)C(=O)Cc1c(C)nc(N2CCC(c3ccccc3OC)CC2)nc1C1CC1 [Example 162, 2-{4-cyclopropyl-2-[4-(2-methoxy-phenyl)-piperidin-1-yl]-6-methyl-pyrimidin-5-yl}-N-methyl-N-propyl-acetamide]"
2,> 10,"COc1ccccc1C1CCN(c2nc(C)c(CC(=O)N(C)CCO)c(C3CC3)n2)CC1 [Example 163, 2-{4-cyclopropyl-2-[4-(2-methoxy-phenyl)-piperidin-1-yl]-6-methyl-pyrimidin-5-yl}-N-(2-hydroxy-ethyl)-N-methyl-acetamide]"
3,> 10,"CCCN(C)C(=O)Cc1cnc(C2CC2)nc1N1CCC(c2ccccc2OC)CC1 [Example 165, 2-{2-cyclopropyl-4-[4-(2-methoxy-phenyl)-piperidin-1-yl]-pyrimidin-5-yl}-N-methyl-N-propyl-acetamide]"
4,0.5 to 2,"COc1ccccc1C1CCN(c2nc(C3CC3)nc3ccc(N(C)CCO)c(F)c23)CC1 [Example 167, 2-({2-Cyclopropyl-5-fluoro-4-[4-(2-methoxy-phenyl)-piperidin-1-yl]-quinazolin-6-yl}-methyl-amino)-ethanol]"
5,> 10,"COc1ccccc1C1CCN(c2nc(C3CC3)nc3cccc(N(C)CCO)c23)CC1 [Example 168, 2-({2-Cyclopropyl-4-[4-(2-methoxy-phenyl)-piperidin-1-yl]-quinazolin-5-yl}-methyl-amino)-ethanol]"
6,2 to 10,"COc1ccccc1C1CCN(c2nc(C3CC3)nc3cc(N(C)CCO)ccc23)CC1 [Example 169, 2-({2-Cyclopropyl-4-[4-(2-methoxy-phenyl)-piperidin-1-yl]-quinazolin-7-yl}-methyl-amino)-ethanol]"
7,2 to 10,"CCCN(C)c1ccc2c(N3CCC(c4ccccc4OC)CC3)nc(C3CC3)nc2c1 [Example 170, {2-Cyclopropyl-4-[4-(2-methoxy-phenyl)-piperidin-1-yl]-quinazolin-7-yl}-methyl-propyl-amine]"
8,< 0.5,COc1ccccc1C1CCN(c2nc(C3(F)CC3)nc3cc(F)c(N(C)CCO)cc23)CC1 [Example 171]
9,0.5 to 2,COc1ccccc1C1CCN(c2nc(C3(F)CC3)nc3cc(Cl)c(N(C)CCO)cc23)CC1 [Example 172]
10,0.5 to 2,"COc1ccccc1C1CCN(c2nc(C3CC3)nc3ccc(N4CC[C@H](O)C4)cc23)CC1 [Example 173, (S)-1-(2-cyclopropyl-4-(4-(2-methoxyphenyl)piperidin-1-yl)quinazolin-6-yl)pyrrolidin-3-ol]"
11,0.5 to 2,"COc1ccccc1C1CCN(c2nc(C3CC3)nc3ccc(N4CC[C@H](OC)C4)cc23)CC1 [Example 174, (S)-2-cyclopropyl-4-(4-(2-methoxyphenyl)piperidin-1-yl)-6-(3-methoxypyrrolidin-1-yl)quinazoline]"
12,0.5 to 2,"COc1ccccc1C1CCN(c2nc(C3CC3)nc3ccc(N4CC[C@@H](O)C4)cc23)CC1 [Example 175, (R)-1-{2-cyclopropyl-4-[4-(2-methoxy-phenyl)-piperidin-1-yl]-quinazolin-6-yl}-pyrrolidin-3-ol]"
13,0.5 to 2,"COc1ccccc1C1CCN(c2nc(C3CC3)nc3ccc(N4CC[C@@H](OC)C4)cc23)CC1 [Example 176, (R)-2-cyclopropyl-4-[4-(2-methoxy-phenyl)-piperidin-1-yl]-6-(3-methoxy-pyrrolidin-1-yl)-quinazoline]"
14,0.5 to 2,"COc1ccccc1C1CCN(c2nc(C3(F)CC3)nc3ccc(N4CC[C@H](O)C4)cc23)CC1 [Example 177, (S)-1-{2-(1-Fluoro-cyclopropyl)-4-[4-(2-methoxy-phenyl)-piperidin-1-yl]-quinazolin-6-yl}-pyrrolidin-3-ol]"
15,0.5 to 2,"COc1ccccc1C1CCN(c2nc(C3(F)CC3)nc3ccc(N4CC[C@@H](O)C4)cc23)CC1 [Example 178, (R)-1-{2-(1-Fluoro-cyclopropyl)-4-[4-(2-methoxy-phenyl)-piperidin-1-yl]-quinazolin-6-yl}-pyrrolidin-3-ol]"
16,< 0.5,"COc1ccccc1C1CCN(c2nc(C3CC3)nc3ccc(N(C)CC(=O)O)cc23)CC1 [Example 179, ({2-Cyclopropyl-4-[4-(2-methoxy-phenyl)-piperidin-1-yl]-quinazolin-6-yl}-methyl-amino)-acetic acid]"
17,2 to 10,"COc1ccccc1C1CCN(c2nc(C3(F)CC3)nc3ccc(N(C)CC(=O)O)cc23)CC1 [Example 180, 2-((2-(1-fluorocyclopropyl)-4-(4-(2-methoxyphenyl)piperidin-1-yl)quinazolin-6-yl)(methyl)amino)acetic acid]"
18,0.5 to 2,"COc1ccccc1C1CCN(c2nc(C3(F)CCC3)nc3c(Cl)cc(N(C)CCO)cc23)CC1 [Example 181, 2-((8-chloro-2-(1-fluorocyclobutyl)-4-(4-(2-methoxyphenyl)piperidin-1-yl)quinazolin-6-yl)(methyl)amino)ethanol]"
19,2 to 10,COc1ccccc1C1CCN(c2nc(C3(F)CCC3)nc3c(Cl)cc(N4CC[C@@H](O)C4)cc23)CC1 [Example 182]

row,SMILES,EC50 [µM]
1,COc1ccccc1C1CCN(c2nc(-c3ccccc3)nc3ccc(N(C)C)cc23)CC1 [Example 143],> 10
